Here are results for eight compounds from patent publication US5716964A, “Tetrazolyl substituted imidazo[1,2-a]pyridinylalkyl compounds for treatment of neurotoxic injury” (G.D. Searle & Co., priority 1995, dated 1998).

Each structure is given as a SMILES string. pKi: −log10 of the molar value. Where a name gives a salt, the structure may show the parent alone.

For one data set, the system named is NMDA. As to conditions: Murphy et al. 1987; cited from earlier work.
The next data set has as its system mice (motor function). The data set is described as follows: Inverted screen test for motor impairment. It is filed as in vivo, mouse (CD-1). The source says:
(§1) 6, 351-353 (1977)]. […] The screens were then slowly inverted. […] The current was held constant at 15 mA. […] There were 10 mice in each treatment group.

The subject of data set [1] is cGMP levels in cerebellum. As to the kind of experiment: Effect on cGMP levels in cerebellum. It is filed as in vivo, mouse (Swiss-Webster). As to conditions: s.c. The method, then: The purpose of this assay is to determine the extent of in vivo bioavailability and the potency as an NMDA antagonist of compound of the invention as compared to known NMDA antagonists, namely, 3(2-carboxypiperizine-4-yl)propyl-1-phosphonic acid (CPP~ and cis-4-phosphonomethyl-2-piperidinecarboxylic acid (CGS 19755). Male Swiss-Webster mice (17-24 g were injected sub-cutaneously (s.c.) with compound of the invention and the known NMDA antagonist standards 30 minutes prior to sacrifice by focussed microwave irradiation. Groups consisted of 7-10 mice. Compounds of Ex. #7 was dissolved in isotonic saline and all compounds were administered in a volume of 0.2 ml per mouse. Cerebella samples were extracted in IN HCl. Hydrochloric acid in extracts of the cerebellum were freeze-dried for assay of cGMP with a commercial RIA kit (NEN). Statistics (Dunett's t-test) were performed as described previously [P. L. Wood et al., Neurochem, 19, 975-982 (1980)]. ED50 values were calculated from log-logit transformation of the dose-response data.

The subject of data set [2] is Mongolian gerbils, CA1 region of the hippocampus. The data set is described as follows: Forebrain ischemia assay (bilateral carotid occlusion, CA1 hippocampal neuron count). It counts as in vivo, Mongolian gerbil. As to conditions: vs control, Mann-Whitney U test. The procedure: This assay was used to determine the extent of protection afforded by compound of the invention to neural brain cells subjected to ischemic conditions. Male Mongolian gerbils, 50-70 gm, were used as subjects. Compound No. 7 (30 mg/kg) was injected i.p. 30 minutes prior to carotid occlusion into 6 gerbils […]. In preparation for surgical procedures, the animals were lightly anesthetized with methoxyflurane and placed upside down on a heated pad with their snout within a nosecone. A 70:30 mixture of nitrous oxide and oxygen containing 0.5% halothane was circulated through the nosecone to provide continuous anesthesia throughout the surgical procedure. A midline incision was made in the neck and the carotid arteries were exposed. A length of suture thread was placed under each carotid. […] Quantification of the resulting lesion is made by counting the pyramidal cell somata in a 0.5 mm length of CAl of the hippocampus on the section corresponding to P 1.7 mm in the gerbil brain atlas.
Normal cell count in this region of the hippocampus in unoperated gerbils is 146±2. The effects of compound of Ex. #7 were assessed by comparing the number of neural cells found in the hippocampus of subjects treated with Ex. #7 compound with the cell number found in the appropriate control groups. […]

The target in the next data set is AMPA (QUIS) receptor. As to the kind of experiment: [3H]AMPA (QUIS) binding assay. As to conditions: [3H]AMPA 10 nM, 100 mM KSCN, SPM, 0-4 °C, 10 min; read-out: Ki IC50 Binding, AMPA. The method, then:
Synaptic plasma membranes (SPM) were prepared as previously described [Monahan, J. B. and Michel, J., "Identification and Characterization of an N-methyl-D-aspartate-specific L[^3 H]glutamate Recognition Site in Synaptic Plasma Membranes, J. Neurochem., 48, 1699-1708 (1987)]. The SPM were stored at a concentration of 10-15 mg/ml in 0.32M sucrose, 0.5 mM EDTA, 1mM MgSO4, 5 mM Tris/SO4, pH 7.4, under liquid nitrogen. The identity and purity of the subcellular fractions were confirmed by both electron microscopy and marker enzymes. Protein concentrations were determined by using a modification of the method of Lowry [Ohnishi, S. T. and Barr, J. K., "A Simplified Method of Quantitating Proteins Using the Biuret and Phenol Reagents", Anal. Biochem., 86, 193-197 (1978)]. The SPM were treated identically for the [^3 H]AMPA (QUIS), [^3 H]kainate and sodium-dependent L-[^3 H]-glumatate binding assays. The SPM were thawed at room temperature, diluted twenty-fold with 50 mM Tris/acetate, pH 7.4, incubated at 37° C. for 30 minutes, and centrifuged at 100,000 g for 15 minutes. The dilution, incubation, and centrifugation was repeated a total of three times. Prior to use in the NMDA specific L-[^3 H]-glutamate binding assay the SPM were thawed, diluted twenty fold with 50 mM Tris/acetate, pH 7.4 containing 0.04% (v/v) Triton X-100, incubated for 30 minutes at 37° C. and centrifuged as described above. The Triton X-100 treated membranes were washed with 50 mM Tris/acetate, pH 7.4 and centrifuged at 100,000 g for 15 minutes a total of four times. […] The basic procedure for the receptor subclass binding assays was similar. This general method involved adding the radioligand (12.5 nM L-[^3 H]glutamate; 0.5 nM [^3 H]kainate or 10 nM [^3 H]AMPA) to the appropriate concentration of the test compound and initiating the assay by the addition of ice cold synaptic plasma membranes (0.2-0.45 mg). The binding assays were performed in 1.5 mL centrifuge tubes with the total volume adjusted to 1.0 mL. Additions of test compounds were made in 50 mM Tris/acetate, pH 7.4 and incubations were carried out at 0°-4° C. The incubation time for the NMDA and the AMPA binding assays was 10 minutes, for the kainate binding assay 60 minutes and for the sodium-dependent glutamate binding assay 15 minutes. The AMPA binding assay contained 100 mM KSCN and the sodium-dependent glutamate binding assay contained 150 mM sodium acetate in addition to the previously described reagents. To terminate the incubation, the samples were centrifuged for 15 minutes at 12,000 g and 4° C. in a Beckman Microfuge 12. The supernatant was aspirated and the pelleted membranes dissolved in Beckman BTS-450 tissue solubilizer for a minimum of 6 hours at room temperature. Beckman MP scintillation cocktail containing 7 mL/l acetic acid was then added and the samples counted on a Beckman LS 5800 or 3801 liquid scintillation counter with automatic corrections for quenching and counting efficiency. Nonspecific binding was defined as the residual binding in the presence of either excess L-glutamate (0.1-0.4 mM), kainate (0.01 mM), or NMDA (0.5 mM), and was 15-25% of the total binding in the NMDA binding assay, 19-27% in the AMPA binding assay, 20-30% in the kainate binding assay and 10-15% in the sodium-dependent binding assay. Radioligand binding to the synaptic plasma membranes was analyzed using Scatchard and Hill transformations and the Ki values of the compounds determined using logit-log transformations. Calculations and regression analysis were performed using templates developed for Lotus 1, 2, 3 as previously described [Pullan, L. M. "Automated Radioligand Receptor Binding Analysis with Templates for Lotus", Computer Appln. Biosci., 3, 131 (1987)]. Binding results are reported in Table I for example compounds of the invention.

Data set [3] deals with mice (tonic hindlimb extensor seizures). As to the kind of experiment: Anticonvulsant assay (electroconvulsive shock, tonic hindlimb extensor seizures). As to conditions: s.c., 30 min prior to ECS. It is filed as in vivo, mouse (CD-1).
Text: as §1

Data set [4] deals with TCP (1-[1-(2-thienyl)cyclohexyl]piperidine) binding in rat brain synaptic membranes. The data set is described as follows: TCP modulation assay ([3H]TCP binding). As to conditions: printed in the column TCP Ki IC50. The procedure:
The effect on the TCP (1-[1-(2-thienyl)cyclohexyl]piperidine) binding was measured in rat brain synaptic membranes (SPM) prepared as previously described [J. B. Monahan & J. Michel; J. Neurochem. 48:1699-1708 (1987)]. Prior to their use in the binding assay, frozen SPM were thawed, diluted twenty fold with 50 mM Tris/acetate (pH 7.4 containing 0.04% (v/v) Triton X-100), incubated for 30 min. at 37° C. and centrifuged at 95,000×g for 15 min. The Triton X-100 treated SPM were washed with 5 mM Tris/HCl, pH 7.4 and centrifuged a total of six times. The compound of Example #7 was incubated at different concentrations with SPM (0.2-0.4 mg protein) and 2 nM tritiated TCP, in a total volume of 0.5 ml of 5 mM Tris/HCl buffer pH 7.4 at 25° C. for 60 min. The samples were filtered through glass fiber filters (Schleicher & Schuell #32) which have been pretreated with 0.05% (v/v) polyethylenimine, washed 4 times with 2 ml of ice-cold 5 mM Tris/HCl buffer, and then counted on a Beckman LS 5800 liquid scintillation counter with automatic corrections for quenching and counting efficiency. Inhibition of TCP binding was measured as a decrease in the binding in the presence of 0.05 mM L-glutamate. Non-specific binding was defined as the residual binding in the presence of […] phencyclidine.

For `O=C(O)C1CN(CCCP(=O)(O)O)CCN1` (stereo not drawn) [CPP, 3-(2-carboxypiperazin-4-yl)propyl-1phosphonic acid], the “NMDA antagonism, in words” value in the data set on NMDA was “potent and selective NMDA antagonist”.

Consider `O=C(O)c1cn2c(CP(=O)(O)O)cccc2n1` [Example 7, 5-(phosphonomethyl)imidazo[1,2-a]pyridine-2-carboxylic acid], for which the “Exhibiting Motor Impairments” value in the data set with mice (motor function) (10 mg/kg s.c.) was 30 % of Mice; with mice (motor function) (32 mg/kg s.c.) it was 50 % of Mice; in the data set with mice (motor function) (56 mg/kg s.c.), 70 % of Mice; in the data set with mice (motor function) (100 mg/kg s.c.), 90 % of Mice. Moreover, the “impairment of motor function, in words” value with mice (motor function) (s.c., inverted screen) is “impaired motor function in a similar dose range”. Further, the “brain bioavailability (decrease of cGMP in mouse cerebellum), in words” value in data set [1] is on record as “brain bioavailable”. For the same compound, in data set [1] (decrease in cerebellar cGMP), the “potency compared with CPP, in words” value was “in the same range of potency as the known NMDA antagonist CPP”. In data set [2], the “hippocampal cell loss after ischemia, in words” value is “significantly reduced”. Besides, the pKi at AMPA (QUIS) receptor is less than 3.52. Further, the “protection against tonic hindlimb extensor seizures, in words” value in data set [3] is reported as “protected against tonic hindlimb extensor seizures in a dose-dependent fashion”.

Turning to `O=C(O)c1cn2cc(CP(=O)(O)O)ccc2n1` [Example 13, 6-(phosphonomethyl)imidazo[1,2-a]pyridine-2-carboxylic acid], the pKi at AMPA (QUIS) receptor was less than 3.52.

As for `O=C(O)c1cn2ccc(CP(=O)(O)O)cc2n1` [Example 18, 7-(phosphonomethyl)imidazo[1,2-a]pyridine-2-carboxylic acid], the pKi on AMPA (QUIS) receptor was less than 3.52.

`O=C(O)c1cn2cccc(CP(=O)(O)O)c2n1` [Example 23, 8-(phosphonomethyl)imidazo[1,2-a]pyridine-2-carboxylic acid]: the pKi at AMPA (QUIS) receptor is less than 3.52.

For the compound `O=C(O)c1cn2c(CP(=O)(O)O)c(Cl)ccc2n1` [Example 30, 6-chloro-5-(phosphonomethyl)imidazo[1,2-a]pyridine-2-carboxylic acid], on AMPA (QUIS) receptor, the negative-log Ki (pKi) is less than 3.52.

For the compound `O=C(O)c1cn2c(C(O)P(=O)(O)O)cccc2n1` (stereo not drawn) [Example 57, 5-(hydroxyphosphonomethyl)imidazo[1,2-a]pyridine-2-carboxylic acid, monohydrochloride], on AMPA (QUIS) receptor, the pKi was less than 3.52. In addition, the “TCP binding, result in words” value in data set [4] is reported as “antag”.

Take `Cc1c(C(=O)O)nc2c(CP(=O)(O)O)cccn12` [Example 67, 3-methyl-8-(phosphonomethyl)imidazo[1,2-a]pyridine-2-carboxylic acid, monohydrochloride]: the pKi at AMPA (QUIS) receptor is less than 3.52.
